Read-outs that look alike come from different tables or passages of the source. Numbered stars: 1 amine (or outer) side, 2 acyl side, 3 side chain; on linkers, the order of the positions; unused ones are H or OH. Bridge positions count the residues as written; N and C are the ends. Square brackets hold non-standard residues; d marks the D form. Peptide text beside a SMILES is read from it. I, II: the chains in the order shown. Actinocin(9to1) = Cc1c2oc3c(C)ccc(C(=O)[*:1])c3nc-2c(C(=O)[*:2])c(N)c1=O; NMeV = CN[C@H](C(=O)O)C(C)C; Sar = CNCC(=O)O
Assays:
HepG2 cells [1] = experiment: cell viability test (MTT), concentration corresponding to an IC80; format: cell-based
Description: (§1) HepG2 cells are then individually treated with different compounds with different levels of toxicity.

HepG2 cells [2] = experiment: hybridization of probes from treated HepG2 cells on filters with clones from qualitative screening of p53-induced apoptosis (toxicity index); format: cell-based; settings: HepG2 cells treated at IC80 concentration, p53 apoptosis filter
Description: as §1

[3] = HepG2 cells, exposure time 18 h
[4] = HepG2 cells, exposure time 18 h, read-out: Concentration (calculated by cell viability test MTT, corresponds to an IC80)

SMILES | Concentration (calculated by cell viability test MTT, corresponds to an IC80) (HepG2 cells [1]; [3]) [µg/mL] | IC80 (HepG2 cells [1]; [4]) [µM] | also measured
O=c1[nH]cc(F)c(=O)[nH]1 [5 FU] | – | – | IC80 (HepG2 cells [1]): 10 µM
CCCCCCCCCCCCCC(=O)O[C@@H]1[C@@H](C)[C@@]2(O)[C@@H](C=C(CO)C[C@]3(O)C(=O)C(C)=C[C@@H]23)[C@@H]2C(C)(C)[C@]12OC(C)=O [PMA] | 1 | – | –
Cc1c2oc3c(C)ccc(C(=O)N[C@@H]4C(=O)N[C@H](C(C)C)C(=O)N5CCC[C@H]5C(=O)N(C)CC(=O)N(C)[C@@H](C(C)C)C(=O)O[C@@H]4C)c3nc-2c(C(=O)N[C@@H]2C(=O)N[C@H](C(C)C)C(=O)N3CCC[C@H]3C(=O)N(C)CC(=O)N(C)[C@@H](C(C)C)C(=O)O[C@@H]2C)c(N)c1=O [Actinomycin D] (I: T[dV]P[Sar][NMeV] / II: T[dV]P[Sar][NMeV]; ester I:1-I:C, II:1-II:C; linker I:N-II:N via Actinocin(9to1)) | 0.02 | – | –
C[C@H]1C[C@H]2[C@@H]3CCC4=CC(=O)C=C[C@]4(C)[C@@]3(Cl)[C@@H](O)C[C@]2(C)[C@@]1(O)C(=O)CO [Beclomethazone] | – | 0.05 | –
CN[C@@H]1C[C@H]2O[C@@](C)([C@@H]1OC)n1c3ccccc3c3c4c(c5c6ccccc6n2c5c31)C(=O)NC4 [Staurosporine] | – | 0.05 | –
O=C(O)Cc1ccccc1Nc1c(Cl)cccc1Cl [Diclofenac] | – | – | splicing events identical to those induced by p53-related toxicity (toxicity index, FIG. 2) (HepG2 cells [2]): generates more splicing events identical to those induced by p53-related toxicity than aspirin
CC(C)[C@@H]1NC(=O)[C@H](C)OC(=O)[C@@H](C(C)C)NC(=O)[C@@H](C(C)C)OC(=O)[C@H](C(C)C)NC(=O)[C@H](C)OC(=O)[C@@H](C(C)C)NC(=O)[C@@H](C(C)C)OC(=O)[C@H](C(C)C)NC(=O)[C@H](C)OC(=O)[C@@H](C(C)C)NC(=O)[C@@H](C(C)C)OC1=O [Valinomycin] | – | 0.015 | –
N#CC(C#N)=NNc1ccc(OC(F)(F)F)cc1 [FCCP] | – | – | IC80 (HepG2 cells [1]): 5 µM
OO [H2O2] | – | 100 | –
C[C@@H]1C[C@@H]([C@H](O)CC2CC(=O)NC(=O)C2)C(=O)[C@@H](C)C1 [Cycloheximide] | 5 | – | –
